{
  "source": "patent US5817012A",
  "about": "“Method of determining an analyte” (Sudormed, Inc., priority 1997, dated 1998)",
  "key": {"[1]": {"settings": "Table 2; weak bases (Wilson, J., Abused Drugs, 1990); cited from earlier work"}, "[2]": {"settings": "literature (Schwartz; Martindale); cited from earlier work"}, "[3]": {"assay": "Example 20: codeine level in urine, Tegaderm-only patches and patches with absorbent material (Table 3)", "type": "in vivo, human", "excerpt": "Five patches comprising only Tegaderm™ 1625 wound dressing were applied to a subject. […] Six patches comprising Tegaderm™ 1625 and another absorbent material were also applied to the subject at the same time. The collection surface area of the absorbent material in these patches was 14 cm^2. Prior to applying each of the patches, the area of skin under each patch was first swabbed with alcohol in order to remove any contaminants present on the surface of the skin.\nTwenty-four hours after the initial application of the patches to the subject, a pre-dose urine specimen and one of each of the two patch types were collected. The subject then orally consumed 60 mg of codeine phosphate (30 ml. Naldecon CX-60). This represents a typical codeine dose. At 30 and 48 hours post-dose, urine and one of each type of patch were collected."}, "[4]": {"type": "in vivo, human", "settings": "60 mg codeine phosphate P.O.; first six hours; heating pad", "protocol": "FIG. 16 is a graph depicting the results of an experiment in which a subject was administered codeine and a dermal patch was then placed on each of the subject's thighs. A heating pad which was heated to 105° F. was then placed over one thigh while the other thigh remained unheated. The patches were replaced each hour for six hours, and a final pair of patches was placed on the subject's thighs for one hour between 24 and 25 hours after the administration of the codeine.\nActive perspiration can be caused by an increase in the body's temperature,such as during exercise. A further experiment was therefore conducted to see whether an increase in the temperature of only one area of the body could cause localized active perspiration. In this experiment, a subject was administered 60 mg of codeine phosphate (in the form of Naldecon CX P.O., 30 ml), and a dermal patch was then placed on each of the subject's thighs. A heating pad which was heated to 105° F. was then placed over one thigh while the other thigh remained unheated. The patches were replaced each hour for six hours, and a final pair of patches was placed on the subject's thighs for one hour between 24 and 25 hours after the administration of the codeine."}, "[5]": {"type": "in vivo, human", "settings": "seven days wear, subject who smoked a marijuana cigarette", "protocol": "THC polyclonal antibody from sheep (available from Biogenesis, Bournmouth, England) is diluted 1:100 in PBS (pH 7.5). The antibodies are bound to Gelman 0.45μ (SU-450) Ultrabind Supported Membrane, following the protocol in Gelman Original Equipment Manufacturer application P.N. 31,084. The membranes are air dried. Disks, 3/8 inch in diameter, are cut from the coated Gelman membranes.\nEach of the removed membranes is flushed five times with 300 μl of 0.2% Tween 20 in PBS. The membranes are incubated for 30 minutes in 100 μl of E-Z Screen Cannabinoid enzyme conjugate from the E-Z Screen Test Kit (available from Environmental Diagnostics, Inc., Burlington, N.C.).\nAfter incubation, each membrane is flushed three times with 300 μl of 0.2% Tween 20 in PBS, followed by three flushes with PBS alone. The membranes are then incubated in TMB Membrane Peroxide Substrate (available from Kirkegaard & Perry Labs, Gaithersburg, Md.) for 10 minutes. A light blue background appears in all six membranes. […] No white dots appear on the three membranes taken from the subject who has never used marijuana."}, "[6]": {"assay": "FIG. 13: cocaine in dermal patches after intravenous cocaine HCl", "settings": "32 mg cocaine HCl intravenously", "procedure": "A dermal patch was then immediately placed on the subject's skin, and after 30 minutes this patch was removed and replaced by a new patch."}, "[7]": {"settings": "cited from earlier work"}, "[8]": {"settings": "in vivo; cited from earlier work"}, "[9]": {"assay": "Example 12: amount of cocaine recovered on patch after nasal ingestion", "settings": "126 mg nasally ingested; about 200 hours wear; 10 cm^2 disk"}, "[10]": {"assay": "FIG. 14: cocaine in dermal patches after smoked cocaine", "settings": "42 mg smoked"}, "[11]": {"assay": "Example 6: cocaine collected on patch converted to BE and analyzed with Roche RIA", "settings": "seven days wear, subject who ingested cocaine, pH 11, 20 minutes", "source_text": "Absorption disks, 3/8 inch in diameter, are cut from Gelman membranes (Gelman 0.45μ (SU-450) Ultrabind Supported Membranes). These 3/8 inch disks are mounted at the center of a 1/4 inch diameter hole cut in the center of a one inch diameter circle of Tegaderm 1625 Transparent Dressing (available from Minnesota Mining and Manufacturing, St. Paul, Minn.) to form a patch.\nThe patches remain in place until they are removed seven days later from each subject.\nFollowing elution, the analyte solutions derived from each of the patches are brought to a pH of 11 by the addition of NaOH to each of the solutions. The solutions are reacted for 20 minutes at pH 11 and at room temperature, after which the solutions are neutralized with HCl."}},
  "note": "Where “and” joins values, the source holds several entries; their conditions need not be identical. Equal values may be shown once. Entries after “also recorded” stand apart in the source; their conditions may differ. Where a name gives a salt, the structure may show the parent alone.",
  "data": [
    {"compound": "c1ccc(C2(N3CCCCC3)CCCCC2)cc1", "note": "[Phencyclidine]", "values": [
      {"measurement": "pKa", "setting": "[1]", "value": 8.5}
    ]},
    {"compound": "CCN(CC)C(=O)[C@@H]1C=C2c3cccc4[nH]cc(c34)C[C@H]2N(C)C1", "note": "[LSD]", "values": [
      {"measurement": "protection from light", "setting": "[2]", "value": "must be kept from exposure to strong light"}
    ]},
    {"compound": "COC(=O)[C@H]1[C@@H](OC(=O)c2ccccc2)C[C@@H]2CC[C@H]1N2C", "note": "[cocaine hydrochloride]", "values": [
      {"measurement": "protection from light", "setting": "[2]", "value": "require protection from light"}
    ]},
    {"compound": "CN[C@@H](C)Cc1ccccc1", "note": "[Methamphetamine]", "values": [
      {"measurement": "pKa", "setting": "[1]", "value": 9.9}
    ]},
    {"compound": "COc1ccc2c3c1O[C@H]1[C@@H](O)C=C[C@H]4[C@@H](C2)N(C)CC[C@@]341", "note": "[Codeine, codeine]", "values": [
      {"measurement": "ratio of recovered codeine in the Tegaderm-only patches compared to the patches with an absorbent material", "setting": "[3]; 24.4/18.1", "value": 136, "unit": "%"},
      {"measurement": "mean codeine level, all five patches having another absorbent material", "setting": "[3]; 30 and 48 hours post-dose", "value": 18.1, "unit": "ng/mL"},
      {"measurement": "mean codeine level, all four Tegaderm-only patches", "setting": "[3]; 30 and 48 hours post-dose", "value": 24.4, "unit": "ng/mL"},
      {"measurement": "Codeine Level, patch with absorbent material", "setting": "[3]; 30 hours post-dose, 60 mg codeine phosphate orally, 14 cm^2", "value": "12.40 ng/mL and 23.99 ng/mL"},
      {"measurement": "urine codeine level", "setting": "[3]; 48 hours post-dose", "value": "returned to baseline"},
      {"measurement": "Codeine Level, urine sample", "setting": "[3]; 48 hours post-dose, 60 mg codeine phosphate orally", "value": 0, "unit": "ng/mL"},
      {"measurement": "Codeine Level, patch with absorbent material", "setting": "[3]; 48 hours post-dose, 60 mg codeine phosphate orally, 14 cm^2", "value": "14.39 ng/mL and 19.41 ng/mL and 20.17 ng/mL"},
      {"measurement": "Codeine Level, Tegaderm-only patch", "setting": "[3]; 48 hours post-dose, 60 mg codeine phosphate orally, 42 cm^2", "value": "17.69 ng/mL and 23.19 ng/mL"},
      {"measurement": "concentration at 30 h", "setting": "[3]; human, urine, po, 30 hours post-dose, 60 mg codeine phosphate orally, read-out: Codeine Level, urine sample", "value": 620, "unit": "ng/mL"},
      {"measurement": "retention of codeine by both patch designs", "setting": "[3]; in vivo", "value": "about 48 hours"},
      {"measurement": "pre-dose presence of codeine", "setting": "[3]; pre-dose urine and patch specimens", "value": "no codeine was present"},
      {"measurement": "Codeine Level, Tegaderm-only patch", "setting": "[3]; predose", "value": 0, "unit": "ng/mL"},
      {"measurement": "Codeine Level, patch with absorbent material", "setting": "[3]; predose", "value": 0, "unit": "ng/mL"},
      {"measurement": "Codeine Level, urine sample", "setting": "[3]; predose", "value": 0, "unit": "ng/mL"},
      {"measurement": "analyte in patches, heated versus unheated thigh", "setting": "[4]", "value": "contained more analyte than the patches on the unheated thigh"}
    ]},
    {"compound": "CCCCCc1cc(O)c2c(c1)OC(C)(C)[C@@H]1CCC(C)=C[C@@H]21", "note": "[THC, tetrahydrocannabinol]", "values": [
      {"measurement": "appearance of white dots on membranes (THC derivatives in sweat)", "setting": "[5]", "value": "White dots appear over the background on the three membranes"}
    ]},
    {"compound": "COC(=O)[C@H]1[C@@H](OC(=O)c2ccccc2)C[C@@H]2CC[C@H]1N2C", "note": "[Cocaine]", "values": [
      {"measurement": "concentration of cocaine in perspiration after the fourth hour", "setting": "[6]", "value": "a steady decline"},
      {"measurement": "stability at pH values higher than 7", "setting": "[7]", "value": "unstable"},
      {"measurement": "back-diffusion from patch", "setting": "almost 200 hours", "value": "without exhibiting significant back-diffusion; also recorded: significant back-diffusion was prevented"},
      {"measurement": "concentration of cocaine on the dermal patch over time", "setting": "almost 200 hours after ingestion, no specific binding chemistry", "value": "rose immediately during the first hours of the test, and thereafter stayed at approximately the same level for the remaining 200 hours"},
      {"measurement": "presence in perspiration and urine", "setting": "[8]", "value": "present in perspiration but not in urine"},
      {"measurement": "cocaine recovered on the patch", "setting": "[9]", "value": "approximately 500 ng"},
      {"measurement": "cocaine recovered on the patch (in parentheses)", "setting": "[9]", "value": "~0.5", "unit": "mg"},
      {"measurement": "cocaine concentration in patch, 8 to 24 hours", "setting": "[10]; patch wet with perspiration, worn 8 to 24 hours", "value": "a significant rise in concentration"},
      {"measurement": "cocaine concentration in patch, 4 to 8 hours", "setting": "[10]; patch worn between 4 and 8 hours", "value": "a decline"},
      {"measurement": "analyte in patch worn 8 to 24 hours compared to patch worn 2 to 4 hours", "setting": "[10]; subject actively perspired", "value": "significantly more analyte diffused into the patch worn between 8 and 24 hours"}
    ]},
    {"compound": "CC(N)Cc1ccccc1", "note": "(stereo not drawn) [Amphetamine]", "values": [
      {"measurement": "pKa", "setting": "[1]", "value": 9.8}
    ]},
    {"compound": "CN1[C@H]2CC[C@@H]1[C@@H](C(=O)O)[C@@H](OC(=O)c1ccccc1)C2", "note": "[BE, benzoylecgonine]", "values": [
      {"measurement": "concentration of BE in the subject's urine over time", "setting": "in vivo", "value": "declining"},
      {"measurement": "diagnostic analysis for BE in patch extract", "setting": "[11]", "value": "tests positive"}
    ]}
  ]
}
